The results in this text go back to patent US4761408A, “Crystalline aminomethyl compound” (priority 1984, dated 1988).

Broadly, the MIC is the lowest concentration found to suppress growth. As usually defined, the ED50 is the dose that gives a 50% effect, or the effect in half of the subjects.

Structures are written as SMILES. Converted amounts (≈) assume the structure as drawn.

The test system of data set [1] is Streptococcus pyrogenes Aronson 1129. As to the kind of experiment: in vitro MIC. The class given is cell-based. The following applies: ARONSON1129.
Data set [2] relates to Escheichia coli 205 R + TEM. As to the kind of experiment: in vitro MIC. The note with it: read-out: in vitro MIC. In kind it is cell-based.
A short description of data set [3]: Determination of the thermal stability (50°, HPLC penem content). The class given is physicochemical. The method, then: In order to determine the thermal stability, samples of crystalline (5R,6S)-2-aminomethyl-6-[(1R)-1-hydroxyethyl)-2-penem-3-carboxylic acid and amorphous racemic (5R,6S,1'R and 5S,6R,1'S)-2-aminomethyl-6-(1'-hydroxyethyl)-2-penem-3-carboxylic acid previously known from German Offenlegungsschrift No. 2 950 898 are used.
20 mg samples are weighed in glass tubes. The glass tubes are sealed firmly with PVC stoppers and heated in a thermostatted oil bath at 50°. At regular intervals individual glass tubes are removed from the oil bath, the samples are dissolved in 100 ml of doubly distilled water and the penem content is determined by means of HPLC analysis [UV detector: Kratos, 305 nm; injection machine: Wisp; 20 μl charge; integrator: Shimazu, C-R3A; pump: Altex, 2.0 ml/minute; column: Knauer, 25 cm×4 mm, C18 /10 um; eluant: acetonitrile/water 2:98, pH5].

In data set [4] the test system is Staphylococcus aureus, Escherichia coli or Streptococcus pyogenes. As to the kind of experiment: systemic infection of mice. The class given is in vivo. The note with it: sc, parenteral, such as subcutaneous, administration.
A short description of data set [5]: stability to the enzyme dehydropeptidase from human kidneys. In kind it is in vitro ADME. The note with it: kidney dehydropeptidase, read-out: t1/2 (stability to dehydropeptidase) (converted). The text has this:
Compounds A and B have the following stability (expressed in half-life periods t1/2) to the enzyme dehydropeptidase from human kidneys: […]

Data set [6] in a line: stability to storage of the solid product. The class given is physicochemical.
Where [7] appears, read: Day 0, 50°, solid in sealed glass tube.

Turning to `C[C@@H](O)[C@H]1C(=O)N2C(C(=O)O)=C(CN)S[C@H]12` (relative stereo) [Compound B, (1'R,5R,6S+1'S,5S,6R)-2-aminomethyl-6-(1'-hydroxyethyl)-2-penem-3-carboxylic acid, reference compound], the values for the MIC in data set [1] and in data set [2] were 0.5 µg/mL (≈ 2.05 µM) and 8 µg/mL (≈ 32.8 µM), respectively. Moreover, the Penem content entry in data set [3] (setting [7]) was “approx. 100%”; in data set [3] (Day 1.8, 50°, 2592 min), 84%; in data set [3] (Day 3, 50°, 4320 min) it was 78%; in data set [3] (Day 4.5, 50°, 6480 min) it was 73%; in data set [3] (Day 7, 50°, 10080 min), 67%; in data set [3] (Day 9, 50°, 12960 min) it was 64%. In addition, the Penem content in data set [3] (Day 12, 50°, 17280 min) amounted to 63%; in data set [3] (Day 14, 50°, 20160 min), 62%.

As for `C[C@@H](O)[C@H]1C(=O)N2C(C(=O)O)=C(CN)S[C@H]12` [Compound A, (5R,6S)-2-aminomethyl-6-[(1R)-1-hydroxyethyl]-2-penem-3-carboxylic acid], the MIC in data set [1] is 0.2 µg/mL (≈ 0.819 µM); in data set [2] it was 4 µg/mL (≈ 16.4 µM). For the same compound, in data set [4], the ED50 fell in the range of 0.3 to 30 mg/kg. Besides, the half-life in data set [5] was 6.75 h. The Penem content result is “approx. 100%” in data set [3] (setting [7]); 99% in data set [3] (Day 1.8, 50°, 2592 min); 98% in data set [3] (Day 3, 50°, 4320 min); 97% in data set [3] (Day 4.5, 50°, 6480 min); 95% in data set [3] (Day 7, 50°, 10080 min); 94% in data set [3] (Day 9, 50°, 12960 min). In addition, the Penem content in data set [3] (Day 12, 50°, 17280 min) amounted to 92%; in data set [3] (Day 14, 50°, 20160 min), 91%. Also, the “absorption of water from the air” value in data set [6] (approximately normal ambient conditions) is listed as “no tendency to absorb relatively large quantities of water from the air”. Further, in data set [6] (relatively long-term action of light, heat (50° C.) and air), the “stability under light, heat and air” value is on record as “very stable”.
